In patent US20200347043A1, “MODULATORS OF THE INTEGRATED STRESS PATHWAY” (Calico Life Sciences LLC, priority 2019, published 2020):

Test system: HEK293T cells carrying the ATF4 luciferase reporter
Test: ATF4-Luc assay (in vitro model of VWMD)
Type: cell-based, human
Conditions: Homo sapiens, HEK-293T, 1 μg/mL tunicamycin, 7 hours, One Glo luminescence
In short: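 Tunicamycin (1 μg/mL) stress with co-added compound for 7 hours in HEK293T cells stably carrying an ATF4 5′-UTR–luciferase reporter. EC50 values come from the luminescent signal (One Glo).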

First: O=C(NC12CCC(NC(=O)[C@H]3C[C@@H](OC(F)(F)F)C3)(CC1)[C@@H](O)C2)c1cc(=O)c2cc(Cl)ccc2o1 [Compound 146, 6-chloro-N-[(3S)-3-hydroxy-4-{[(1s,3R)-3-(trifluoromethoxy)cyclobutane-1-carbonyl]amino}bicyclo[2.2.2]octan-1-yl]-4-oxo-4H-1-benzopyran-2-carboxamide]
Second: O=C1CC(C(=O)NC23CCC(c4nnc([C@H]5C[C@@H](OC(F)(F)F)C5)o4)(CC2)OC3)Oc2ccc(Cl)cc21 (stereo partly shown) [Compound 163]
The EC50 of the first is higher: 250 to 500 nM for the first, 10 to 50 nM for the second. The second is the more potent here.

Compared with `O=C1CC(C(=O)NC23CC(n4cnc(-c5ccc(F)c(F)c5)c4)(C2)C3)Oc2ccc(Cl)cc21` (stereo not shown) [Compound 148, 6-chloro-N-{3-[4-(3,4-difluorophenyl)-1H-imidazol-1-yl]bicyclo[1.1.1]pentan-1-yl}-4-oxo-3,4-dihydro-2H-1-benzopyran-2-carboxamide], `O=C1C[C@@H](C(=O)NC23CC(n4cnc(-c5ccc(F)c(F)c5)c4)(C2)C3)Oc2ccc(Cl)cc21` [Compound 175, (2S)-6-chloro-N-{3-[4-(3,4-difluorophenyl)-1H-imidazol-1-yl]bicyclo[1.1.1]pentan-1-yl}-4-oxo-3,4-dihydro-2H-1-benzopyran-2-carboxamide] is higher in EC50: 10 to 50 nM for the first, 50 to 250 nM for the second. The first is the more potent here.

First: O=C1CC(C(=O)NC23CCC(c4nnc(C5CC(OC(F)(F)F)C5)o4)(C2)C3)Oc2ccc(Cl)cc21 (stereo not shown) [Compound 150, 6-chloro-4-oxo-N-(4-{5-[(1s,3s)-3-(trifluoromethoxy)cyclobutyl]-1,3,4-oxadiazol-2-yl}bicyclo[2.1.1]hexan-1-yl)-3,4-dihydro-2H-1-benzopyran-2-carboxamide]
Second: O=C1CC(C(=O)NC23CCC(c4nnc([C@H]5C[C@@H](OC(F)(F)F)C5)o4)(CC2)CC3)Oc2ccc(Cl)cc21 (stereo partly drawn) [Compound 167, 6-chloro-4-oxo-N-(4-{5-[cis-3-(trifluoromethoxy)cyclobutyl]-1,3,4-oxadiazol-2-yl}bicyclo[2.2.2]octan-1-yl)-3,4-dihydro-2H-1-benzopyran-2-carboxamide]
The EC50 of the first is higher: greater than 2000 nM for the first, 10 to 50 nM for the second. The second is the more potent here.

First: O=C1CC(C(=O)N[C@@H]2CC[C@@H](c3nnc([C@H]4C[C@@H](OC(F)(F)F)C4)o3)OC2)Oc2ccc(Cl)cc21 (stereo partly drawn) [Compound 152, 6-chloro-4-oxo-N-[(3R,6)-6-{5-[(1s,3R)-3-(trifluoromethoxy)cyclobutyl]-1,3,4-oxadiazol-2-yl}oxan-3-yl]-3,4-dihydro-2H-1-benzopyran-2-carboxamide]
Second: O=C1C[C@@H](C(=O)N[C@@H]2CC[C@@H](c3nnc([C@H]4C[C@@H](OC(F)(F)F)C4)o3)OC2)Oc2ccc(Cl)cc21 [Compound 177, (2S)-6-chloro-4-oxo-N-[(3R,6S)-6-{5-[cis-3-(trifluoromethoxy)cyclobutyl]-1,3,4-oxadiazol-2-yl}oxan-3-yl]-3,4-dihydro-2H-1-benzopyran-2-carboxamide]
The EC50 of the first is lower: 10 to 50 nM for the first, 50 to 250 nM for the second. The first is the more potent here.

`O=C(COc1ccc(Cl)c(F)c1)N[C@@H]1CC[C@@H](c2nnc([C@H]3C[C@@H](OC(F)(F)F)C3)o2)OC1` [Compound 153, 2-(4-chloro-3-fluorophenoxy)-N-[(3R,6S)-6-{5-[(1s,3R)-3-(trifluoromethoxy)cyclobutyl]-1,3,4-oxadiazol-2-yl}oxan-3-yl]acetamide] and `O=C(N[C@@H]1CC[C@@H](c2nnc([C@H]3C[C@@H](OC(F)(F)F)C3)o2)OC1)[C@H]1C[C@@H](O)c2cc(Cl)ccc2O1` [Compound 169, (2R,4R)-6-chloro-4-hydroxy-N-[(3R,6S)-6-{5-[cis-3-(trifluoromethoxy)cyclobutyl]-1,3,4-oxadiazol-2-yl}oxan-3-yl]-3,4-dihydro-2H-1-benzopyran-2-carboxamide] cannot be ordered by EC50: less than 10 nM for the first, less than 10 nM for the second.

Compared with `O=C(NC12CC(C3NC(COc4ccc(Cl)c(F)c4)=NO3)(C1)C2)[C@H]1C[C@@H](O)c2cc(Cl)ccc2O1` (stereo partly drawn) [Compound 154, (2R,4R)-6-chloro-N-(3-{3-[(4-chloro-3-fluorophenoxy)methyl]-4,5-dihydro-1,2,4-oxadiazol-5-yl}bicyclo[1.1.1]pentan-1-yl)-4-hydroxy-3,4-dihydro-2H-1-benzopyran-2-carboxamide], `O=C(NC12CC(c3nc(COc4ccc(Cl)c(F)c4)no3)(C1)C2)[C@H]1C[C@@H](O)c2cc(Cl)ccc2O1` [Compound 156, (2R,4R)-6-chloro-N-(3-{3-[(4-chloro-3-fluorophenoxy)methyl]-1,2,4-oxadiazol-5-yl}bicyclo[1.1.1]pentan-1-yl)-4-hydroxy-3,4-dihydro-2H-1-benzopyran-2-carboxamide] is lower in EC50: 10 to 50 nM for the first, less than 10 nM for the second.

`O=C1C[C@H](C(=O)NC23CC(c4nc(COc5ccc(Cl)c(F)c5)no4)(C2)C3)Oc2ccc(Cl)cc21` [Compound 155, (2R)-6-chloro-N-(3-{3-[(4-chloro-3-fluorophenoxy)methyl]-1,2,4-oxadiazol-5-yl}bicyclo[1.1.1]pentan-1-yl)-4-oxo-3,4-dihydro-2H-1-benzopyran-2-carboxamide] and `O=C1C[C@H](C(=O)NC23CC(n4cnc(-c5ccc(F)c(F)c5)c4)(C2)C3)Oc2ccc(Cl)cc21` [Compound 176, (2R)-6-chloro-N-{3-[4-(3,4-difluorophenyl)-1H-imidazol-1-yl]bicyclo[1.1.1]pentan-1-yl}-4-oxo-3,4-dihydro-2H-1-benzopyran-2-carboxamide] fall in the same range of EC50: 10 to 50 nM for the first, 10 to 50 nM for the second.

`O=C(CO[C@H]1C[C@@H](OC(F)(F)F)C1)NC12CCC(C(=O)NCc3ccc(C(F)(F)F)cn3)(CC1)CC2` [Compound 157] and `O=C(CO[C@H]1C[C@@H](OC(F)(F)F)C1)N[C@H]1CC[C@H](C(=O)NCc2ccc(C(F)(F)F)cn2)CC1` [Compound 158, (1r,4r)-4-(2-{[(1s,3s)-3-(trifluoromethoxy)cyclobutyl]oxy}acetamido)-N-([5-(trifluoromethyl)pyridin-2-yl]methyl)cyclohexane-1-carboxamide] cannot be ordered by EC50: greater than 2000 nM for the first, greater than 2000 nM for the second.

Compared with `O=C(CO[C@H]1C[C@@H](OC(F)(F)F)C1)NC12CC(NC(=O)[C@H]3CC(=O)c4cc(Cl)ccc4O3)(C1)C2` [Compound 162, (2R)-6-chloro-4-oxo-N-[3-(2-{[cis-3-(trifluoromethoxy)cyclobutyl]oxy}acetamido)bicyclo[1.1.1]pentan-1-yl]-3,4-dihydro-2H-1-benzopyran-2-carboxamide], `O=C(CO[C@H]1C[C@@H](OC(F)(F)F)C1)NC12CC(NC(=O)[C@H]3C[C@@H](O)c4cc(Cl)ccc4O3)(C1)C2` [Compound 164, (2R,4R)-6-chloro-4-hydroxy-N-[3-(2-{[cis-3-(trifluoromethoxy)cyclobutyl]oxy}acetamido)bicyclo[1.1.1]pentan-1-yl]-3,4-dihydro-2H-1-benzopyran-2-carboxamide] is lower in EC50: 10 to 50 nM for the first, less than 10 nM for the second. The second is the more potent here.

`O=C(NC12CCC(c3nnc([C@H]4C[C@@H](OC(F)(F)F)C4)o3)(CC1)OC2)C1CC(O)c2cc(Cl)ccc2O1` (stereo partly shown) [Compound 165] and `O=C(N[C@H]1CC[C@H](C(=O)NCc2ccc(C(F)(F)F)cn2)CC1)[C@@H]1C[C@@H](O)c2cc(Cl)ccc2O1` [Compound 172, (2S,4R)-6-chloro-4-hydroxy-N-[trans-4-({[5-(trifluoromethyl)pyridin-2-yl]methyl}carbamoyl)cyclohexyl]-3,4-dihydro-2H-1-benzopyran-2-carboxamide] fall in the same range of EC50: 10 to 50 nM for the first, 10 to 50 nM for the second.

First: O=C1C[C@H](C(=O)N[C@H]2CC[C@H](C(=O)N3CC(c4ccc(Cl)cc4)C3)CC2)Oc2ccc(Cl)cc21 [Compound 173, (2R)-6-chloro-N-{trans-4-[3-(4-chlorophenyl)azetidine-1-carbonyl]cyclohexyl}-4-oxo-3,4-dihydro-2H-1-benzopyran-2-carboxamide]
Second: O=C(N[C@H]1CC[C@H](C(=O)N2CC(c3ccc(Cl)cc3)C2)CC1)[C@H]1C[C@@H](O)c2cc(Cl)ccc2O1 [Compound 174, (2R,4R)-6-chloro-N-{trans-4-[3-(4-chlorophenyl)azetidine-1-carbonyl]cyclohexyl}-4-hydroxy-3,4-dihydro-2H-1-benzopyran-2-carboxamide]
The EC50 of the first is higher: 10 to 50 nM for the first, less than 10 nM for the second. The second is the more potent here.

Compared with `O=C(N[C@H]1CC[C@H](C(=O)N2CC(c3ccc(Cl)cc3)C2)CC1)[C@@H]1C[C@@H](O)c2cc(Cl)ccc2O1` [Compound 178], `O=C(N[C@H]1CC[C@H](C(=O)N2CC(c3ccccc3)C2)CC1)[C@H]1C[C@@H](O)c2cc(Cl)ccc2O1` [Compound 182, (2R,4R)-6-chloro-4-hydroxy-N-[trans-4-(3-phenylazetidine-1-carbonyl)cyclohexyl]-3,4-dihydro-2H-1-benzopyran-2-carboxamide] is higher in EC50: 10 to 50 nM for the first, greater than 2000 nM for the second. The first is the more potent here.

Compared with `O=C1C[C@H](C(=O)NC23CC(N4CCN(c5ccc(Cl)cc5)C4=O)(C2)C3)Oc2ccc(Cl)cc21` [Compound 179, (2R)-6-chloro-N-{3-[3-(4-chlorophenyl)-2-oxoimidazolidin-1-yl]bicyclo[1.1.1]pentan-1-yl}-4-oxo-3,4-dihydro-2H-1-benzopyran-2-carboxamide], `O=C(NC12CC(N3CCN(c4ccc(Cl)cc4)C3=O)(C1)C2)[C@H]1C[C@@H](O)c2cc(Cl)ccc2O1` [Compound 183, (2R,4R)-6-chloro-N-{3-[3-(4-chlorophenyl)-2-oxoimidazolidin-1-yl]bicyclo[1.1.1]pentan-1-yl}-4-hydroxy-3,4-dihydro-2H-1-benzopyran-2-carboxamide] is lower in EC50: 50 to 250 nM for the first, 10 to 50 nM for the second.

First: O=C(NC12CC(n3cnc(-c4ccc(F)c(F)c4)c3)(C1)C2)[C@@H]1C[C@H](O)c2cc(Cl)ccc2O1 [Compound 180, (2S,4S)-6-chloro-N-{3-[4-(3,4-difluorophenyl)-1H-imidazol-1-yl]bicyclo[1.1.1]pentan-1-yl}-4-hydroxy-3,4-dihydro-2H-1-benzopyran-2-carboxamide]
Second: O=C(NC12CC(n3cnc(-c4ccc(F)c(F)c4)c3)(C1)C2)[C@H]1C[C@@H](O)c2cc(Cl)ccc2O1 [Compound 181, (2R,4R)-6-chloro-N-{3-[4-(3,4-difluorophenyl)-1H-imidazol-1-yl]bicyclo[1.1.1]pentan-1-yl}-4-hydroxy-3,4-dihydro-2H-1-benzopyran-2-carboxamide]
The EC50 of the first is higher: 50 to 250 nM for the first, less than 10 nM for the second.
